This is an account of results in paper PMC3961306, “Comparison of the Cancer Gene Targeting and Biochemical Selectivities of All Targeted Kinase Inhibitors Approved for Clinical Use” (PLoS ONE, 2014).

Experiment in all cases: Kinase profiling in a biochemical assay panel (mobility shift assays and ELISA), %-inhibition at 1 μM; selectivity entropy
A general note: In an ELISA, binding on a coated surface is turned into a signal by an enzyme label.

Test [1] addresses panel of more than 300 wild-type and mutant kinases (313 kinase panel) (Homo sapiens, UniProt Q00526).
Test [2] addresses panel of more than 300 wild-type and mutant kinases (313 kinase panel) (Homo sapiens, UniProt P04049).
Test [3] deals with panel of more than 300 wild-type and mutant kinases (313 kinase panel) (Homo sapiens, UniProt Q9P0L2).
Sequence of panel of more than 300 wild-type and mutant kinases (313 kinase panel) (Homo sapiens, UniProt Q9P0L2) (Q9P0L2 whole entry, change not shown): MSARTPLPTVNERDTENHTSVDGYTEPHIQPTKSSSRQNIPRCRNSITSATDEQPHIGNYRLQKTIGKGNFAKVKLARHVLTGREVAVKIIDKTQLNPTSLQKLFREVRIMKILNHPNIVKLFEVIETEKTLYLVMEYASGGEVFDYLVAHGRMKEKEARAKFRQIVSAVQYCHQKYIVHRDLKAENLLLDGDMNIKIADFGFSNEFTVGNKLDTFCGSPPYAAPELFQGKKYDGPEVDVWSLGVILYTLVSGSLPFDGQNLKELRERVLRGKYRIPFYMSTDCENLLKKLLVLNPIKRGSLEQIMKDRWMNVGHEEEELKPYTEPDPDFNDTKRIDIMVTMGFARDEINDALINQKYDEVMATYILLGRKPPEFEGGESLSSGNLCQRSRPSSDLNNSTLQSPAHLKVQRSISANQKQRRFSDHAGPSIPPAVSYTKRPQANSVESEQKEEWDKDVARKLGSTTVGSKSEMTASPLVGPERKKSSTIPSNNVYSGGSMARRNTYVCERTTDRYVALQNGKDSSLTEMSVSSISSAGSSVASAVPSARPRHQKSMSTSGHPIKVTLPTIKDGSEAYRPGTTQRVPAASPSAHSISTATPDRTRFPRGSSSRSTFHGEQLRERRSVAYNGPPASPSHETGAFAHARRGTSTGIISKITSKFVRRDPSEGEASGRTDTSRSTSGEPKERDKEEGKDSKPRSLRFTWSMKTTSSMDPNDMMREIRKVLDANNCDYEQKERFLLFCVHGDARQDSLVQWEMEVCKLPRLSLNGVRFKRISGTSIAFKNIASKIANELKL
Test [4] addresses panel of more than 300 wild-type and mutant kinases (313 kinase panel) (Homo sapiens, UniProt P57059).
Test [5] deals with panel of more than 300 wild-type and mutant kinases (313 kinase panel) (Homo sapiens, UniProt P36507).
Test [6] addresses panel of more than 300 wild-type and mutant kinases (313 kinase panel) (Homo sapiens, UniProt P10721, V654A).
In test [7] the target is panel of more than 300 wild-type and mutant kinases (313 kinase panel) (Homo sapiens, UniProt P07949, Y791F).
Sequence of panel of more than 300 wild-type and mutant kinases (313 kinase panel) (Homo sapiens, UniProt P07949, Y791F) (P07949 29-1114 Y791F): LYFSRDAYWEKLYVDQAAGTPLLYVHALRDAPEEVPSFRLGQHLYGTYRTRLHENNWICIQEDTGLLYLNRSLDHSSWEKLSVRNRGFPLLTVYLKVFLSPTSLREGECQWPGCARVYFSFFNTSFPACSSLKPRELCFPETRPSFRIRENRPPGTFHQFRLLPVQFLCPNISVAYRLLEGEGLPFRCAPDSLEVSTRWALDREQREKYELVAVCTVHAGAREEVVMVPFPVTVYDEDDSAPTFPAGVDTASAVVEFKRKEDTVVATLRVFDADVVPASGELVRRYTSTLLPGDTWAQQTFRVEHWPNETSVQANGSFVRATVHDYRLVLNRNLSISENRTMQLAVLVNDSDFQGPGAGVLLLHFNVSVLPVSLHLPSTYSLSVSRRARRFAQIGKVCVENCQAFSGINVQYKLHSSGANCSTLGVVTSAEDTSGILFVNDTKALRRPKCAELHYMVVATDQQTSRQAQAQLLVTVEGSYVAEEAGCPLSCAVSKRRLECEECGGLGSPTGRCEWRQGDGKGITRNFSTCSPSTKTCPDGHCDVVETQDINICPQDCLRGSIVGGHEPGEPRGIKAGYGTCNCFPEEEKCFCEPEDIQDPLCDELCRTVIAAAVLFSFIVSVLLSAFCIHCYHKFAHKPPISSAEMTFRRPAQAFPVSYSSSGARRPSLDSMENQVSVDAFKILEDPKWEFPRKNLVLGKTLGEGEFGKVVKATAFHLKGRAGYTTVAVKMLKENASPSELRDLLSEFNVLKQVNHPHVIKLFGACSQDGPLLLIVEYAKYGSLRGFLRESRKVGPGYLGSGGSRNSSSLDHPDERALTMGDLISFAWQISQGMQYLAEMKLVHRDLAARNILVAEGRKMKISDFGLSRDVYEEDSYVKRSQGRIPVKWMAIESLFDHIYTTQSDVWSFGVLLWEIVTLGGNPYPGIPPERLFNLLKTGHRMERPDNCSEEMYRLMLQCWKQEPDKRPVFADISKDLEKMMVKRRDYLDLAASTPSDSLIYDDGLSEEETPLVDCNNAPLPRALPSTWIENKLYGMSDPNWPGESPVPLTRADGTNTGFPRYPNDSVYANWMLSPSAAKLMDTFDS
In test [8] the target is T1, panel of more than 300 wild-type and mutant kinases (313 kinase panel) (Homo sapiens, UniProt O00418).
T1 sequence (O00418 1-725): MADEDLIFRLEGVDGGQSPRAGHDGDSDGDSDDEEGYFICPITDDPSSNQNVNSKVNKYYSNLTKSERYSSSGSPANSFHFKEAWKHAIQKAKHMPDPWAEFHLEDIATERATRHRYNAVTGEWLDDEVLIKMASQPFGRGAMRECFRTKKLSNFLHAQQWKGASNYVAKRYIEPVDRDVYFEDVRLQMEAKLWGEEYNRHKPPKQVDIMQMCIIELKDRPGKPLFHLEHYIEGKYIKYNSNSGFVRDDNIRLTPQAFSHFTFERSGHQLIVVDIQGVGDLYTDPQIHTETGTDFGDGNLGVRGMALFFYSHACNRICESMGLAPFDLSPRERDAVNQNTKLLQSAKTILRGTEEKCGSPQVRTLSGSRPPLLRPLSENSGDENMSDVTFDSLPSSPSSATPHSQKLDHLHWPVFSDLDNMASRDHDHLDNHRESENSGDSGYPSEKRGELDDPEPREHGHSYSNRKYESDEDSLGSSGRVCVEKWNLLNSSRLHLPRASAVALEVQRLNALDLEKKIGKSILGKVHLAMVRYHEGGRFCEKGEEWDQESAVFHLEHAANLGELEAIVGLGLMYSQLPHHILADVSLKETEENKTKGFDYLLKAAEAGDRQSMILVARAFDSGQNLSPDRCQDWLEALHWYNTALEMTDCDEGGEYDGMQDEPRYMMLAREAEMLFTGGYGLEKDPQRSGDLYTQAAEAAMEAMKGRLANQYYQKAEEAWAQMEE

Test [9] concerns the target T2, panel of more than 300 wild-type and mutant kinases (313 kinase panel) (Homo sapiens, UniProt Q13043).
T2 sequence (Q13043 1-487): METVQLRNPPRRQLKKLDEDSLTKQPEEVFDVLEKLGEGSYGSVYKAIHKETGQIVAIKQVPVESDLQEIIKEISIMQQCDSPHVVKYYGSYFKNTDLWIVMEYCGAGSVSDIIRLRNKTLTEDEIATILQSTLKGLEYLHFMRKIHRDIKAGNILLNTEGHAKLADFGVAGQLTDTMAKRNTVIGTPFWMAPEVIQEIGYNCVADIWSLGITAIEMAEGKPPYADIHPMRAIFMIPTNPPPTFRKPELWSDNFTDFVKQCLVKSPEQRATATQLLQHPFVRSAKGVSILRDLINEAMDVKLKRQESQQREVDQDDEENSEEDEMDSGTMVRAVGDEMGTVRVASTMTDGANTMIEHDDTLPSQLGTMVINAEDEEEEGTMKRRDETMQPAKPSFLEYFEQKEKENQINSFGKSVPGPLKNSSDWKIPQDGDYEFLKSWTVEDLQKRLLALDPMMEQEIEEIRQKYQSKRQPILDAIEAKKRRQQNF

Test [10] addresses T3, panel of more than 300 wild-type and mutant kinases (313 kinase panel) (Homo sapiens, UniProt Q8NE63).
T3 sequence (Q8NE63 1-616): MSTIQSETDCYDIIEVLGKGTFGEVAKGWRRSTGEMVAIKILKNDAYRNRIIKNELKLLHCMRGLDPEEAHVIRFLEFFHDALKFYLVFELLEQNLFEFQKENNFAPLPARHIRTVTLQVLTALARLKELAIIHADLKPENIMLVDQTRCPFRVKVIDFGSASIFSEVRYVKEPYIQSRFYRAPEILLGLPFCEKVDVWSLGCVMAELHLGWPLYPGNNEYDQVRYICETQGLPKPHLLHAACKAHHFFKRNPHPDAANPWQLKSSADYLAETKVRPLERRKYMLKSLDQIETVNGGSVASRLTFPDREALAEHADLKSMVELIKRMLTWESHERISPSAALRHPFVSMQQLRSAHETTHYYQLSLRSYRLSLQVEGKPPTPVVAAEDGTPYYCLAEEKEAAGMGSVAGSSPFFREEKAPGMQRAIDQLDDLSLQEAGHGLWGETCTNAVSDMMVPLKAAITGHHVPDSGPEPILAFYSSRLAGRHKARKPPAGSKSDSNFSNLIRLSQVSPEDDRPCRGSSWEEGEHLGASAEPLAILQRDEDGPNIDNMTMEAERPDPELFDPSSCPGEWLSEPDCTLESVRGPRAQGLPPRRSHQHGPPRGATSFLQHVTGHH

Setting [11] is: kinase CDK3/CycE1, 1 μM compound.
[12] abbreviates: kinase MAP2K2, compound at 1 μM.
The mark [13] stands for this setting: kinase KIT(V654A), compound at 1 μM.

Sequence of panel of more than 300 wild-type and mutant kinases (313 kinase panel) (Homo sapiens, UniProt P04049) (P04049 whole entry, change not shown): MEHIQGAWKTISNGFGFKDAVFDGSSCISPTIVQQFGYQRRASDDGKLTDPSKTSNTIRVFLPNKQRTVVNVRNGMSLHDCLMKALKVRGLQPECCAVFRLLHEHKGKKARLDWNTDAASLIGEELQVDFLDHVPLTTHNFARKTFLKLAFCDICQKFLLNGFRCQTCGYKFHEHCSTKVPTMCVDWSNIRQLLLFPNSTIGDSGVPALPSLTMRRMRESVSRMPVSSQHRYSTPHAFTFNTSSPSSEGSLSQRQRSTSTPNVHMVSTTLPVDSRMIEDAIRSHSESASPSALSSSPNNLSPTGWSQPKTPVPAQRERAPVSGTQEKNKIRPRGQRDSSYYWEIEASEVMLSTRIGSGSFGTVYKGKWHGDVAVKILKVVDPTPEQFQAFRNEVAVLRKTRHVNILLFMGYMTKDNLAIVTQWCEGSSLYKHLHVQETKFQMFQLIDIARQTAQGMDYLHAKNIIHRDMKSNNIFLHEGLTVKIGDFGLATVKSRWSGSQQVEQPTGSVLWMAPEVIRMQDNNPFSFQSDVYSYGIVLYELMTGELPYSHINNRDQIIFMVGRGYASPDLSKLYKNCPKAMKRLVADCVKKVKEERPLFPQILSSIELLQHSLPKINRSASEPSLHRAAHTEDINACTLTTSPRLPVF
Sequence of panel of more than 300 wild-type and mutant kinases (313 kinase panel) (Homo sapiens, UniProt P10721, V654A) (P10721 26-976 V654A): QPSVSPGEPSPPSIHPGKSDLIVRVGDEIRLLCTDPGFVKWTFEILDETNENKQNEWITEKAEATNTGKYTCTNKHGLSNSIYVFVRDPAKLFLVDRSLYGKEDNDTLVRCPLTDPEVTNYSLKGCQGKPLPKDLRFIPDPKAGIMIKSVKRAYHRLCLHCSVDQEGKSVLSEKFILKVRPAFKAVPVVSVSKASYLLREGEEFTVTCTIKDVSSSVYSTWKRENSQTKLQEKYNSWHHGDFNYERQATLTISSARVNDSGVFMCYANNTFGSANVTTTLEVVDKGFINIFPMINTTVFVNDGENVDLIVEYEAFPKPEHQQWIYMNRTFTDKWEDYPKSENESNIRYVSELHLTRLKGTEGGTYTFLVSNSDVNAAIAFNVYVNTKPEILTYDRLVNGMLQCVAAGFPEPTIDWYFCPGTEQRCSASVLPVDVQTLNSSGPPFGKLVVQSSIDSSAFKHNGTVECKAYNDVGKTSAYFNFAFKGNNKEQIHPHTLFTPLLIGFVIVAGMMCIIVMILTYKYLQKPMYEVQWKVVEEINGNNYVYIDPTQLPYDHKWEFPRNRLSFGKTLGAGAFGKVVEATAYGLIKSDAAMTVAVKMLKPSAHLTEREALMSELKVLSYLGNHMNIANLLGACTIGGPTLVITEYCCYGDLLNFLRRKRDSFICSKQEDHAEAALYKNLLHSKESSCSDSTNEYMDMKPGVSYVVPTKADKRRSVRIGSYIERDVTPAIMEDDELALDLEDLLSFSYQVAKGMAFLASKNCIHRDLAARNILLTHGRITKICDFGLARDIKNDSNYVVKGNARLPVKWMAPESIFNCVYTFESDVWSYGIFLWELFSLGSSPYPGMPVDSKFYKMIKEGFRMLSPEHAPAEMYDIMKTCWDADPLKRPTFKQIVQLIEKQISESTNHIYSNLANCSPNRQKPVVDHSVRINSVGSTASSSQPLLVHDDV
Sequence of panel of more than 300 wild-type and mutant kinases (313 kinase panel) (Homo sapiens, UniProt Q00526) (Q00526 whole entry, change not shown): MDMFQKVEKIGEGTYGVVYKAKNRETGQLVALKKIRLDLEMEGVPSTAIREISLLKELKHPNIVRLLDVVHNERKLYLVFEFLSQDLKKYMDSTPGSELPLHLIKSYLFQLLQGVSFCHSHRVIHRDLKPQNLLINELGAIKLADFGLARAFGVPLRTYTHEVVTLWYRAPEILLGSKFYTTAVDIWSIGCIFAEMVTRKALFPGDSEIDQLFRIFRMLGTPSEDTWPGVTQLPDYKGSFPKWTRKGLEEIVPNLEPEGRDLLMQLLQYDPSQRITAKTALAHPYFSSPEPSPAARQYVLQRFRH

As for `C#Cc1cccc(Nc2ncnc3cc(OCCOC)c(OCCOC)cc23)c1` [erlotinib], the “%-inhibition, CDK3/CycE1” value in test [1] (1 µM) turned out to be 7%. In addition, the “%-inhibition of RAF1” value in test [2] (1 µM) amounted to 0.534%. For the same compound, in test [3] (1 µM), the “%-inhibition of MARK1” value is given as 11%. Also, the “%-inhibition of SIK” value in test [4] (1 µM) is 8%. In addition, in [5] (1 µM), the “%-inhibition of MAP2K2” value was found to be 8%. Besides, the “%-inhibition of KIT(V654A)” value in test [6] (1 µM) is on record as 1.65%. In test [7] (1 µM), the “%-inhibition of RET(Y791F)” value worked out at 70%. Besides, in [8] (1 µM), the “%-inhibition of EEF2K” value is reported as -0.225%. For the same compound, in test [9] (1 µM), the “%-inhibition of MST1” value is on record as -1.06%. In addition, the “%-inhibition of HIPK4” value in test [10] (1 µM) was determined as 37%.
Turning to `CO[C@H]1C[C@@H]2CC[C@@H](C)[C@@](O)(O2)C(=O)C(=O)N2CCCC[C@H]2C(=O)O[C@H]([C@H](C)C[C@@H]2CC[C@@H](OCCO)[C@H](OC)C2)CC(=O)[C@H](C)/C=C(\C)[C@@H](O)[C@@H](OC)C(=O)[C@H](C)C[C@H](C)/C=C/C=C/C=C/1C` [everolimus], the “%-inhibition, CDK3/CycE1” value in [1] (setting [11]) is given as -4.51%. Besides, in test [2] (kinase RAF1, 1 μM), the “%-inhibition of RAF1” value is 14%. Besides, the “%-inhibition of MARK1” value in [3] (kinase MARK1, compound at 1 μM) is recorded as -0.63%. Moreover, the “%-inhibition of SIK” value in test [4] (kinase SIK, 1 μM) is -5.51%. Also, the “%-inhibition of MAP2K2” value in [5] (setting [12]) was found to be 11%. For the same compound, the “%-inhibition of KIT(V654A)” value in test [6] (setting [13]) is -3.52%. In addition, the “%-inhibition of RET(Y791F)” value in [7] (kinase RET(Y791F), 1 μM) was -3.57%. Also, the “%-inhibition of EEF2K” value in test [8] (kinase EEF2K, compound at 1 μM) is given as -14%. Moreover, the “%-inhibition of MST1” value in [9] (kinase MST1, 1 μM) is -1.86%. In [10] (kinase HIPK4, compound at 1 μM), the “%-inhibition of HIPK4” value is recorded as -6.34%.
As to `O=S(=O)(c1cccc2cnccc12)N1CCCNCC1` [fasudil], the “%-inhibition, CDK3/CycE1” value in [1] (setting [11]) was 24%. Moreover, the “%-inhibition of RAF1” value in test [2] (kinase RAF1, 1 μM) is on record as 8%. Moreover, the “%-inhibition of MARK1” value in test [3] (kinase MARK1, compound at 1 μM) is -9%. For the same compound, the “%-inhibition of SIK” value in [4] (kinase SIK, 1 μM) is listed as -0.948%. The “%-inhibition of MAP2K2” value in test [5] (setting [12]) amounted to 13%. Further, the “%-inhibition of KIT(V654A)” value in test [6] (setting [13]) was -4%. Further, the “%-inhibition of RET(Y791F)” value in test [7] (kinase RET(Y791F), 1 μM) amounted to 1%. The “%-inhibition of EEF2K” value in test [8] (kinase EEF2K, compound at 1 μM) is listed as -3.43%. Moreover, the “%-inhibition of MST1” value in test [9] (kinase MST1, 1 μM) turned out to be 10%. The “%-inhibition of HIPK4” value in [10] (kinase HIPK4, compound at 1 μM) is listed as -0.779%.
For `Cc1cn(-c2cc(NC(=O)c3ccc(C)c(Nc4nccc(-c5cccnc5)n4)c3)cc(C(F)(F)F)c2)cn1` [nilotinib], the “%-inhibition, CDK3/CycE1” value in [1] (setting [11]) is listed as -1.6%. For the same compound, the “%-inhibition of RAF1” value in test [2] (1 µM) is 58%. For the same compound, the “%-inhibition of MARK1” value in test [3] (kinase MARK1, compound at 1 μM) was found to be 12%. Moreover, the “%-inhibition of SIK” value in test [4] (kinase SIK, 1 μM) is -25%. Besides, in test [5] (setting [12]), the “%-inhibition of MAP2K2” value is -12%. Moreover, the “%-inhibition of KIT(V654A)” value in [6] (1 µM) is 19%. Besides, the “%-inhibition of RET(Y791F)” value in test [7] (1 µM) is recorded as 16%. Moreover, in [8] (kinase EEF2K, compound at 1 μM), the “%-inhibition of EEF2K” value was determined as 6.34%. The “%-inhibition of MST1” value in test [9] (1 µM) was -21%. For the same compound, the “%-inhibition of HIPK4” value in test [10] (kinase HIPK4, compound at 1 μM) is 37%.
Regarding `Cc1ccc(Nc2nccc(N(C)c3ccc4c(C)n(C)nc4c3)n2)cc1S(N)(=O)=O` [pazopanib], the “%-inhibition, CDK3/CycE1” value in test [1] (setting [11]) is on record as 0.931%. Besides, the “%-inhibition of RAF1” value in test [2] (kinase RAF1, 1 μM) is 85%. In test [3] (kinase MARK1, compound at 1 μM), the “%-inhibition of MARK1” value amounted to 2.19%. The “%-inhibition of SIK” value in [4] (kinase SIK, 1 μM) is 19%. For the same compound, the “%-inhibition of MAP2K2” value in [5] (setting [12]) was found to be 1.87%. The “%-inhibition of KIT(V654A)” value in test [6] (setting [13]) is 87%. Also, in test [7] (kinase RET(Y791F), 1 μM), the “%-inhibition of RET(Y791F)” value was found to be 94%. The “%-inhibition of EEF2K” value in test [8] (kinase EEF2K, compound at 1 μM) is on record as -3%. The “%-inhibition of MST1” value in test [9] (kinase MST1, 1 μM) is reported as 2%. Also, the “%-inhibition of HIPK4” value in test [10] (kinase HIPK4, compound at 1 μM) stood at 22%.
Regarding `CO[C@H]1C[C@@H]2CC[C@@H](C)[C@@](O)(O2)C(=O)C(=O)N2CCCC[C@H]2C(=O)O[C@H]([C@H](C)C[C@@H]2CC[C@@H](OC(=O)C(C)(CO)CO)[C@H](OC)C2)CC(=O)[C@H](C)/C=C(\C)[C@@H](O)[C@@H](OC)C(=O)[C@H](C)C[C@H](C)/C=C/C=C/C=C/1C` [temsirolimus], the “%-inhibition, CDK3/CycE1” value in test [1] (setting [11]) is listed as -6%. The “%-inhibition of RAF1” value in test [2] (kinase RAF1, 1 μM) is given as -0.648%. The “%-inhibition of MARK1” value in [3] (kinase MARK1, compound at 1 μM) is on record as -5%. The “%-inhibition of SIK” value in test [4] (kinase SIK, 1 μM) is recorded as -5.28%. The “%-inhibition of MAP2K2” value in test [5] (setting [12]) was 13%. Moreover, the “%-inhibition of KIT(V654A)” value in [6] (setting [13]) is listed as -4.65%. Besides, the “%-inhibition of RET(Y791F)” value in test [7] (kinase RET(Y791F), 1 μM) is recorded as -0.679%. Also, the “%-inhibition of EEF2K” value in [8] (kinase EEF2K, compound at 1 μM) is listed as -6%. The “%-inhibition of MST1” value in test [9] (kinase MST1, 1 μM) is recorded as -2.42%. Moreover, the “%-inhibition of HIPK4” value in test [10] (kinase HIPK4, compound at 1 μM) worked out at 2.19%.
For the compound `CCCS(=O)(=O)Nc1ccc(F)c(C(=O)c2c[nH]c3ncc(-c4ccc(Cl)cc4)cc23)c1F` [vemurafenib], in test [1] (setting [11]), the “%-inhibition, CDK3/CycE1” value is given as -4.34%. Also, the “%-inhibition of RAF1” value in test [2] (kinase RAF1, 1 μM) is 96%. Besides, the “%-inhibition of MARK1” value in test [3] (kinase MARK1, compound at 1 μM) is -9%. The “%-inhibition of SIK” value in test [4] (kinase SIK, 1 μM) is given as 24%. The “%-inhibition of MAP2K2” value in [5] (setting [12]) is recorded as 30%. In [6] (setting [13]), the “%-inhibition of KIT(V654A)” value is listed as -1.8%. Further, in [7] (kinase RET(Y791F), 1 μM), the “%-inhibition of RET(Y791F)” value is reported as 30%. The “%-inhibition of EEF2K” value in [8] (kinase EEF2K, compound at 1 μM) was -5%. Besides, the “%-inhibition of MST1” value in test [9] (kinase MST1, 1 μM) was 51%. In test [10] (kinase HIPK4, compound at 1 μM), the “%-inhibition of HIPK4” value is -0.437%.
